Reference: article PMC3082437 (Journal of biomolecular screening, 2010)
pEC50: −log10 of the molar value. Read-outs that look alike come from different tables or passages of the source. Where a SMILES comes first, the peptide text is derived from it. The star is where a group is joined. Cbz = O=C(OCc1ccccc1)*

System: K328M-Wee1-Luc fusion protein in transiently transfected HeLa cells
Assay: K328M-Wee1-Luc degradation
Type: cell-based

Question: CC(C)C[C@@H](C=O)NC(=O)[C@H](CC(C)C)NC(=O)[C@H](CC(C)C)NC(=O)OCc1ccccc1 [MG132, Z-Leu-Leu-Leu-CHO] (Cbz-Leu-Leu-Leu-aldehyde) was tested. Which “hill slope of dose-response curve” value did it give?
Answer: Its value is > 2.5.

Question: What about the “increase in luminescent levels” value (30 μM, vs DMSO) of the same compound?
Answer: The value was > 9 fold.

Question: What about the pEC50 (optimized 1536-well protocol, n=5) of the same compound?
Answer: Its pEC50 is 5.33.

Question: What about the pEC50 (read-out: EC50, different thawed vials from a single batch, n=4) of the same compound?
Answer: The pEC50 was 5.33.

Question: And the pEC50 (read-out: EC50, non-cryopreserved cells, non-cryopreserved cell suspensions)?
Answer: The pEC50 was 5.27.
